Laboratory results: patent publication US5607937A, “Piperazides of substituted phenylalanine derivatives as thrombin inhibitors” (priority 1993, dated 1997)
pKi: −log10 of the molar value. Like-named read-outs stand apart in the source and are kept apart here.

How the values were obtained:
[1] = target: T1, trypsin (Bos taurus, UniProt P00760); assay: inhibition of trypsin, dissociation constant Ki; assay type: biochemical; design: thrombin and the related enzymes trypsin, plasmin, factor Xa, factor XIIa; settings: Table 1; read-out: Ki, Trypsin
T1 sequence (P00760 24-246): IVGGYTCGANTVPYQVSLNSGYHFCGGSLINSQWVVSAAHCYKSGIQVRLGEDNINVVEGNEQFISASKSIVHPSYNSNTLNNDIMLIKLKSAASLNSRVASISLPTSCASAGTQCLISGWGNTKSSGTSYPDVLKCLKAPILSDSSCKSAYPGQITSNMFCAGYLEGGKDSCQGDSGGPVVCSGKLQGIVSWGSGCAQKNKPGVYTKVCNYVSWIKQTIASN
Procedure: (§1) The biological activity of the compounds of the present invention was determined in vitro as well as in vivo.

[2] = target: factor Xa (Bos taurus, UniProt P00743); assay: inhibition of factor Xa, dissociation constant Ki; assay type: biochemical; settings: Table 1
factor Xa, sequence (P00743 234-492 limits assumed): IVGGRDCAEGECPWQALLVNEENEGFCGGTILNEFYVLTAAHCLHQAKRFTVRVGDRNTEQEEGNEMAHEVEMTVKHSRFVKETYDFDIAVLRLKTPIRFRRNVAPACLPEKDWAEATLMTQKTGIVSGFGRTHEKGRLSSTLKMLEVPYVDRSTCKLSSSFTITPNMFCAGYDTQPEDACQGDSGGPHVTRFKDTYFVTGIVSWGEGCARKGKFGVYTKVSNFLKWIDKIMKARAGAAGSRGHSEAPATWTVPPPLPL
factor Xa, sequence (P00743 41-180 partner limits assumed): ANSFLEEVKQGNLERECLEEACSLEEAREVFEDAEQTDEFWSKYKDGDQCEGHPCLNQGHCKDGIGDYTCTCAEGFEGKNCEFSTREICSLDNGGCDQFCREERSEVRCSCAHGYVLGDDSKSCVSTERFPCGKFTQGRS
Procedure: as §1

[3] = target: T2, factor XIIa (Homo sapiens, UniProt P00748); assay: inhibition of factor XIIa, dissociation constant Ki
T2 sequence (P00748 373-615 limits assumed): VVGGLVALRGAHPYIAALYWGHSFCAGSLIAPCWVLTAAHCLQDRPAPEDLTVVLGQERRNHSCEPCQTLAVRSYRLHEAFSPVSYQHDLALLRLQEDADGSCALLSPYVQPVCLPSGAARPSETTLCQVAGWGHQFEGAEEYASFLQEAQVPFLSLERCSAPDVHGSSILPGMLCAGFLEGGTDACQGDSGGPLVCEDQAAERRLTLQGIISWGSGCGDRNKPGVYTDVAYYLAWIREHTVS

[4] = target: T3, thrombin (Bos taurus, UniProt P00735); assay: biochemical
[5] = target: plasma kallikrein (Homo sapiens, UniProt P03952); assay: inhibition of plasma kallikrein, dissociation constant Ki
plasma kallikrein, sequence (P03952 391-638 limits assumed, species assumed): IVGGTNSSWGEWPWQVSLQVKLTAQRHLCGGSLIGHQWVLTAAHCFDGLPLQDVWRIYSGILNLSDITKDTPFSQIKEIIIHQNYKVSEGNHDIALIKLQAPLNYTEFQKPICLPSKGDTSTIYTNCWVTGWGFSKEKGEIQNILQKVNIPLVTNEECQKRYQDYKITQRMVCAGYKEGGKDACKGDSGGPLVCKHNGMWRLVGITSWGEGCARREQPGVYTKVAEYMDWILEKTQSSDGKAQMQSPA
plasma kallikrein, sequence (P03952 20-390 partner limits assumed, species assumed): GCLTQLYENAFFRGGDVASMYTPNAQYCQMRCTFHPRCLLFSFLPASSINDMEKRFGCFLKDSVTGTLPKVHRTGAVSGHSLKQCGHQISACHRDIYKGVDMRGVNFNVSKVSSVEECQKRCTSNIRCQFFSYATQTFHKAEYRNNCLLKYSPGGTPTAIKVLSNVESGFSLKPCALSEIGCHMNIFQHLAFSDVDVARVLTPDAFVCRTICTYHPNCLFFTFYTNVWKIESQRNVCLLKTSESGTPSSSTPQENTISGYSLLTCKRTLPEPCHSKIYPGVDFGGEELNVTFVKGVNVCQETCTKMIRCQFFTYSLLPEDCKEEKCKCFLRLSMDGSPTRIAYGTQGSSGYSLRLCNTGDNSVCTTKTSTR

[6] = target: plasmin (Homo sapiens, UniProt P00747); assay: inhibition of plasmin, dissociation constant Ki
plasmin, sequence (P00747 581-810 limits assumed): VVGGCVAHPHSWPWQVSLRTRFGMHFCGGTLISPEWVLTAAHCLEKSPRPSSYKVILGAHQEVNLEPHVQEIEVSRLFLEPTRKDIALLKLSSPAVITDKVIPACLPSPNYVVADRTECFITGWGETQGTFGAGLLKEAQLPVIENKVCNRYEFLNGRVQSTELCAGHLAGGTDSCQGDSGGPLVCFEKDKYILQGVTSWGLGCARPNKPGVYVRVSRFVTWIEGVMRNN
plasmin, sequence (P00747 97-580 partner limits assumed): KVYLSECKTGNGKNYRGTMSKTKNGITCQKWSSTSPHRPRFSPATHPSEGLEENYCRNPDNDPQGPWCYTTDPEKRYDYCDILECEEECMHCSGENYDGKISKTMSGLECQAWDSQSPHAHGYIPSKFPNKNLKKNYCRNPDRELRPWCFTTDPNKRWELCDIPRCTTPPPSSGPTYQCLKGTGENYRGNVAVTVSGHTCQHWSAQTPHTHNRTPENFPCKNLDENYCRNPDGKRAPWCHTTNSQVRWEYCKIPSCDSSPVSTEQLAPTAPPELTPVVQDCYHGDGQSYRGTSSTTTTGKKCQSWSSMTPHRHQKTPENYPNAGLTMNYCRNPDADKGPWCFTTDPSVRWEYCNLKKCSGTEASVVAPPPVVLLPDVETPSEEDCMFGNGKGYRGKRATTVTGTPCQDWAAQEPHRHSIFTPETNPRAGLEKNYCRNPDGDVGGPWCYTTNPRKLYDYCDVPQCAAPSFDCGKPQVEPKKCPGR

[7] = target: tPA (Homo sapiens, UniProt P00750); assay: inhibition of tPA, dissociation constant Ki
tPA, sequence (P00750 36-562): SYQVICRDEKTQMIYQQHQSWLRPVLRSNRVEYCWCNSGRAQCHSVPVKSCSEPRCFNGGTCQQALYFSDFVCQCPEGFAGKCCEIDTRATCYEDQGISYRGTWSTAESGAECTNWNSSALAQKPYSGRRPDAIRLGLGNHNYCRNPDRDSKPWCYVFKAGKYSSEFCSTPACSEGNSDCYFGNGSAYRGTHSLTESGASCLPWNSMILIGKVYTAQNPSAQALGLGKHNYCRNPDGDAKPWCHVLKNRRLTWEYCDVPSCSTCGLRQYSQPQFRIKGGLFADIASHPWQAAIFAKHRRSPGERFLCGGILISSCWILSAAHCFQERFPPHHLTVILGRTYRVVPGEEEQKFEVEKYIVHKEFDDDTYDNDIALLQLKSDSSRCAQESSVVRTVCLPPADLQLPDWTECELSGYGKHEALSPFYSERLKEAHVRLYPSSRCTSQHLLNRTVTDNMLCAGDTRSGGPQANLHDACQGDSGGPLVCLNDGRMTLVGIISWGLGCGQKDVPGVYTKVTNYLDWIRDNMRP

[8] = target: glandular kallikrein (Sus scrofa, UniProt P00752); assay: inhibition of glandular kallikrein, dissociation constant Ki
glandular kallikrein, sequence (P00752 8-246): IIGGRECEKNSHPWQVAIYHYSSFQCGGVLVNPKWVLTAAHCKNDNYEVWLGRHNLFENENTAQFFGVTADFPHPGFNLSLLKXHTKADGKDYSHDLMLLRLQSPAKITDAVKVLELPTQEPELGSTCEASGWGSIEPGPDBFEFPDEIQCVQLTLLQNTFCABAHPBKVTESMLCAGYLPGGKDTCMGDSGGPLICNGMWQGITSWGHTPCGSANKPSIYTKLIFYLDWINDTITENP

[9] = target: T3, thrombin; settings: read-out: Ki, Thrombin

Compound | pKi [1] | pKi [2] | pKi [3] | pKi [4] | pKi [5] | pKi [6] | pKi [7] | pKi [8] | pKi ([6]; read-out: Ki, Plasmin, Table 1) | pKi ([9]; Table 1) | pKi ([3]; Ki, Factor XIIa, Table 1) | pKi [9]
N=C(N)c1cccc(CC(NS(=O)(=O)c2ccc3ccccc3c2)C(=O)N2CCN(c3ccccn3)CC2)c1 (stereo not drawn) [AMD 2-Naph 2-Pyl] | 7.46 | 4.92 | 4.08 | 6.28 | 4.72 | 5.48 | < 3.00 | < 3.00 | – | – | – | –
N=C(N)c1cccc(CC(NS(=O)(=O)c2ccc3ccccc3c2)C(=O)N2CCN(c3ncccn3)CC2)c1 (stereo not drawn) [AMD 2-Naph 2-Pym] | 7.21 | 4.85 | 4.00 | 5.74 | 4.72 | 5.48 | 3.49 | < 3.00 | – | – | – | –
CCCCCC(=O)N1CCN(C(=O)C(Cc2cccc(C(=N)N)c2)NS(=O)(=O)c2ccc3ccccc3c2)CC1 (stereo not drawn) [AMD 2-Naph CO(CH2)4 CH3] | – | 4.72 | 3.57 | – | 4.64 | – | < 3.00 | < 3.00 | 5.59 | 5.19 | – | –
N=C(N)c1cccc(CC(NS(=O)(=O)c2ccc3ccccc3c2)C(=O)N2CCN(C(=O)C3CCC3)CC2)c1 (stereo not drawn) [AMD 2-Naph CO-cBu] | 7.59 | – | < 3.00 | 5.60 | 4.25 | 5.12 | < 3.00 | < 3.00 | – | – | – | –
N=C(N)c1cccc(CC(NS(=O)(=O)c2ccc3ccccc3c2)C(=O)N2CCN(C(=O)C3CCCCC3)CC2)c1 (stereo not drawn) [AMD 2-Naph CO-cHex] | – | – | 3.46 | – | 4.10 | – | < 3.00 | < 3.00 | 4.99 | – | – | –
N=C(N)c1cccc(CC(NS(=O)(=O)c2ccc3ccccc3c2)C(=O)N2CCN(C(=O)C3CC3)CC2)c1 (stereo not drawn) [AMD 2-Naph CO-cPr] | 7.36 | 4.35 | 3.27 | 6.85 | 4.66 | 5.29 | 3.77 | < 3.00 | – | – | – | –
COCC(=O)N1CCN(C(=O)C(Cc2cccc(C(=N)N)c2)NS(=O)(=O)c2ccc3ccccc3c2)CC1 (stereo not drawn) [AMD 2-Naph COCH2 OMe] | 7.18 | 4.80 | 4.13 | 5.89 | 4.80 | 5.21 | < 3.00 | < 3.00 | – | – | – | –
CC(C)C(=O)N1CCN(C(=O)C(Cc2cccc(C(=N)N)c2)NS(=O)(=O)c2ccc3ccccc3c2)CC1 (stereo not drawn) [AMD 2-Naph COCH(Me)2] | 7.20 | 4.08 | < 3.00 | 6.59 | 4.30 | 5.03 | 3.36 | < 3.00 | – | – | – | –
N=C(N)c1cccc(CC(NS(=O)(=O)c2ccc3ccccc3c2)C(=O)N2CCN(CCO)CC2)c1 (stereo not drawn) [AMD 2-Naph EtOH] | – | 4.46 | – | – | 4.13 | – | < 3.00 | < 3.00 | 4.38 | – | < 3.00 | 7.24
N=C(N)c1cccc(CC(NS(=O)(=O)c2ccc3ccccc3c2)C(=O)N2CCN(C=O)CC2)c1 (stereo not drawn) [AMD 2-Naph For] | – | 4.72 | 4.08 | – | 4.80 | – | < 3.00 | 3.36 | 5.20 | – | – | 7.43
COc1cc(C)c(S(=O)(=O)N2CCN(C(=O)C(Cc3cccc(C(=N)N)c3)NS(=O)(=O)c3ccc4ccccc4c3)CC2)c(C)c1C (stereo not drawn) [AMD 2-Naph SO2 -Mtr] | 5.82 | 4.60 | 5.12 | 7.30 | 5.16 | 4.43 | < 3.00 | < 3.00 | – | – | – | –
N=C(N)c1cccc(CC(NS(=O)(=O)c2ccc3ccccc3c2)C(=O)N2CCN(S(=O)(=O)c3ccccc3)CC2)c1 (stereo not drawn) [AMD 2-Naph SO2 -Ph] | – | 4.62 | 3.92 | – | 4.44 | – | < 3.00 | < 3.00 | 4.72 | 7.39 | – | –
Cc1cc(C)c(S(=O)(=O)N2CCN(C(=O)C(Cc3cccc(C(=N)N)c3)NS(=O)(=O)c3ccc4ccccc4c3)CC2)c(C)c1 (stereo not drawn) [AMD 2-Naph SO2 -TMeP] | 6.23 | 4.89 | 3.16 | 7.12 | 6.00 | 4.51 | < 3.00 | < 3.00 | – | – | – | –
Cc1ccc(S(=O)(=O)N2CCN(C(=O)C(Cc3cccc(C(=N)N)c3)NS(=O)(=O)c3ccc4ccccc4c3)CC2)cc1 (stereo not drawn) [AMD 2-Naph SO2 -Tol] | – | 4.62 | < 3.00 | – | 4.52 | – | < 3.00 | < 3.00 | 4.82 | 7.66 | – | –
CCS(=O)(=O)N1CCN(C(=O)C(Cc2cccc(C(=N)N)c2)NS(=O)(=O)c2ccc3ccccc3c2)CC1 (stereo not drawn) [AMD 2-Naph SO2 Et] | – | 4.62 | 3.67 | – | 4.24 | – | 3.09 | < 3.00 | 5.46 | 7.36 | – | –
CS(=O)(=O)N1CCN(C(=O)C(Cc2cccc(C(=N)N)c2)NS(=O)(=O)c2ccc3ccccc3c2)CC1 (stereo not drawn) [AMD 2-Naph SO2 Me] | – | 4.66 | 4.07 | – | 4.11 | – | < 3.00 | < 3.00 | 4.92 | – | – | –
N=C(N)c1cccc(CC(NS(=O)(=O)c2ccc3ccccc3c2)C(=O)N2CCN(S(=O)(=O)c3ccc4ccccc4c3)CC2)c1 (stereo not drawn) [AMD 2-Naph SO2-2-Naph] | – | 4.60 | 4.05 | – | 4.66 | – | < 3.00 | < 3.00 | 4.96 | 7.62 | – | –
N=C(N)c1cccc(CC(NS(=O)(=O)c2ccc3ccccc3c2)C(=O)N2CCN(C(=O)Cc3cccs3)CC2)c1 (stereo not drawn) [AMD 2-Naph drawing 11] | 7.09 | 4.80 | 4.14 | 5.60 | 4.72 | 5.57 | 3.77 | < 3.00 | – | – | – | –
N=C(N)c1cccc(CC(NS(=O)(=O)c2ccc3c(c2)C(=O)c2ccccc2C3=O)C(=O)N2CCN(C=O)CC2)c1 (stereo not drawn) [AMD AC For] | 7.48 | 5.77 | 5.14 | 7.51 | 4.96 | 4.89 | 4.08 | < 3.00 | – | – | – | –
COc1cc(C)c(S(=O)(=O)NC(Cc2cccc(C(=N)N)c2)C(=O)N2CCN(S(C)(=O)=O)CC2)c(C)c1C (stereo not drawn) [AMD Mtr SO2 Me] | – | 3.92 | 3.20 | – | 3.82 | – | < 3.00 | < 3.00 | 4.74 | 7.49 | – | –
CC(=O)N1CCN(C(=O)C(Cc2cccc(C(=N)N)c2)NS(=O)(=O)c2c(C)c(C)c3c(c2C)CCC(C)(C)O3)CC1 (stereo not drawn) [AMD Pmc Ac] | 6.22 | 3.82 | 3.38 | 7.13 | 4.36 | 4.94 | 3.17 | 3.12 | – | – | – | –
Cc1c(C)c(S(=O)(=O)NC(Cc2cccc(C(=N)N)c2)C(=O)N2CCN(C(=O)N(C)C)CC2)c(C)c2c1OC(C)(C)CC2 (stereo not drawn) [AMD Pmc CO-N(Me)2] | 6.24 | 4.59 | < 3.00 | 7.48 | 4.03 | 4.89 | < 3.00 | < 3.00 | – | – | – | –
Cc1c(C)c(S(=O)(=O)NC(Cc2cccc(C(=N)N)c2)C(=O)N2CCN(CCO)CC2)c(C)c2c1OC(C)(C)CC2 (stereo not drawn) [AMD Pmc EtOH] | 5.48 | 4.04 | < 3.00 | 7.23 | 3.74 | 4.32 | < 3.00 | < 3.00 | – | – | – | –
Cc1c(C)c(S(=O)(=O)NC(Cc2cccc(C(=N)N)c2)C(=O)N2CCN(S(C)(=O)=O)CC2)c(C)c2c1OC(C)(C)CC2 (stereo not drawn) [AMD Pmc SO2 Me] | – | 4.12 | 3.85 | – | 3.85 | – | < 3.00 | < 3.00 | – | 8.13 | – | –
CC(=O)N1CCN(C(=O)C(Cc2cccc(C(=N)N)c2)NS(=O)(=O)c2c(C(C)C)cc(C(C)C)cc2C(C)C)CC1 (stereo not drawn) [AMD TIPP Ac] | 6.66 | 5.40 | 4.33 | 7.01 | 5.14 | – | 4.77 | 3.70 | 5.52 | – | – | –
N=C(N)c1cccc(C[C@H](NS(=O)(=O)c2ccc3ccccc3c2)C(=O)N2CCN(C=O)CC2)c1 [AMD(L) 2-Naph For] | 7.14 | – | 4.38 | 7.96 | 5.44 | – | 3.92 | < 3.00 | – | – | – | –
NCc1cccc(CC(NS(=O)(=O)c2ccc3ccccc3c2)C(=O)N2CCN(c3ccccn3)CC2)c1 (stereo not drawn) [Ame 2-Naph 2-Pyl] | 6.28 | 3.89 | < 3.00 | 4.62 | 4.03 | 4.59 | < 3.00 | < 3.00 | – | – | – | –
